This passage reports IC50 results from patent publication US7601716B2, “Pyridopyrazines and derivatives thereof as ALK and c-Met inhibitors” (Cephalon, Inc., priority 2006, dated 2009).

Where a name gives a salt, the structure may show the parent alone. Bounds are passed on as bounds.

For test [1], the target named is T1, c-Met (cytoplasmic domain) (Homo sapiens, UniProt P08581).
T1 construct: Reactions were initiated with 30 ng/mL c-Met (cytoplasmic domain, Invitrogen Corporation #PV3143); purchased Invitrogen Corporation PV3143
Nature of the test: c-Met Kinase Assay (ELISA/TRF, PLC-γ substrate). As to conditions: 3 μM ATP (Km level); read-out: c-Met Kinase Inhibition (IC50). It counts as biochemical. In short, it runs like this: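 c-Met cytoplasmic domain (30 ng/mL) phosphorylates plate-coated GST–PLC-γ for 15 min at 37 °C. Phosphotyrosine detected with Eu-labeled PT66 antibody by time-resolved fluorescence. IC50 from variable-slope sigmoidal fit of % inhibition vs log concentration.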

Test [2] addresses baculovirus-expressed ALK (Homo sapiens, UniProt Q9UM73). Description: ALK Kinase Assay (ELISA/TRF, PLC-γ substrate). Further: 1 µM ATP (Km level). It counts as biochemical. Particulars: read-out: ALK Kinase Inhibition (IC50). In short, it runs like this: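 Plates coated with GST-PLC-γ substrate (10 µg/mL in TBS), then reaction started with 30 ng/ml baculovirus-expressed ALK, 15 min at 37 °C. Phosphotyrosine detected by Eu-labeled PT66 antibody and time-resolved fluorescence. IC50 from variable-slope sigmoidal fit of percent inhibition versus log concentration.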

baculovirus-expressed ALK, sequence (Q9UM73 19-1620): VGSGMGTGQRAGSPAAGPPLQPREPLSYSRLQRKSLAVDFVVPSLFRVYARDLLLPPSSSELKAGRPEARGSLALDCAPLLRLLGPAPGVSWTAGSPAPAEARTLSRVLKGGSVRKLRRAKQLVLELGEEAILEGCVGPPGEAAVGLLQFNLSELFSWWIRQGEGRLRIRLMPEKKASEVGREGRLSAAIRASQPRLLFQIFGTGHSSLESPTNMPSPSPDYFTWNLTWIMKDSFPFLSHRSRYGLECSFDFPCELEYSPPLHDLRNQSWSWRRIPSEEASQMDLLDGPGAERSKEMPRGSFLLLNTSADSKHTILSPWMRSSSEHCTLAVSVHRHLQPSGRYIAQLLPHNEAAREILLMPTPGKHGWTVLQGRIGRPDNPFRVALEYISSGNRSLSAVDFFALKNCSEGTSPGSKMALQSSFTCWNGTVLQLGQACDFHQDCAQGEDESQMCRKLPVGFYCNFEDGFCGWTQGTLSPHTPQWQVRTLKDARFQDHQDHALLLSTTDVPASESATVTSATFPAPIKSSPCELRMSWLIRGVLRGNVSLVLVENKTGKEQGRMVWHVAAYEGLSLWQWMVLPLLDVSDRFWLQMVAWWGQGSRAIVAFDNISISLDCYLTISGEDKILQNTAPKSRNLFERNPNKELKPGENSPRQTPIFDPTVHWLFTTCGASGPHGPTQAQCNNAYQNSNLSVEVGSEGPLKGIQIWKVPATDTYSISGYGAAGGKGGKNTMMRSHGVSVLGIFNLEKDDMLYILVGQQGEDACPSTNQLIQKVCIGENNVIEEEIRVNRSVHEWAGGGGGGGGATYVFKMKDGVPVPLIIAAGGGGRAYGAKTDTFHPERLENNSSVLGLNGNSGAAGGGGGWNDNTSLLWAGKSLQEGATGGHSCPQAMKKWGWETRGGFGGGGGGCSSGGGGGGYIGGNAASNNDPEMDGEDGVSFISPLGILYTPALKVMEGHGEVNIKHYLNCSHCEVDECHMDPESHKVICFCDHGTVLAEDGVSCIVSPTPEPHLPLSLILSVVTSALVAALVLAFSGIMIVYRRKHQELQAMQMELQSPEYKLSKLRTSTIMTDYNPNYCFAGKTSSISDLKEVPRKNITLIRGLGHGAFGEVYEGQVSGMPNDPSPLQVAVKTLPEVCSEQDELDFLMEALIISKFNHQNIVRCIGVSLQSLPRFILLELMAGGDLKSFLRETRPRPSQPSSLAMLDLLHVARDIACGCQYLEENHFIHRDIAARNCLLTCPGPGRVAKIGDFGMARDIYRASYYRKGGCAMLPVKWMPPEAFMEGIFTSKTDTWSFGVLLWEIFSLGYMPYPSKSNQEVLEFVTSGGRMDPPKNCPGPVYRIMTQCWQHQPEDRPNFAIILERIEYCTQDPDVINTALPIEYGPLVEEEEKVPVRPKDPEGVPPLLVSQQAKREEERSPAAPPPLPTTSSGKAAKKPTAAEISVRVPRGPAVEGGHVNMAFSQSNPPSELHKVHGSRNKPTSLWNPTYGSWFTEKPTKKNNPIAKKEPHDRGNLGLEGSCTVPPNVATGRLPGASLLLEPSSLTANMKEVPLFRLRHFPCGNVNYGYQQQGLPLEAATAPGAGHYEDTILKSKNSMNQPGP
T1 sequence (P08581 956-1390 limits assumed): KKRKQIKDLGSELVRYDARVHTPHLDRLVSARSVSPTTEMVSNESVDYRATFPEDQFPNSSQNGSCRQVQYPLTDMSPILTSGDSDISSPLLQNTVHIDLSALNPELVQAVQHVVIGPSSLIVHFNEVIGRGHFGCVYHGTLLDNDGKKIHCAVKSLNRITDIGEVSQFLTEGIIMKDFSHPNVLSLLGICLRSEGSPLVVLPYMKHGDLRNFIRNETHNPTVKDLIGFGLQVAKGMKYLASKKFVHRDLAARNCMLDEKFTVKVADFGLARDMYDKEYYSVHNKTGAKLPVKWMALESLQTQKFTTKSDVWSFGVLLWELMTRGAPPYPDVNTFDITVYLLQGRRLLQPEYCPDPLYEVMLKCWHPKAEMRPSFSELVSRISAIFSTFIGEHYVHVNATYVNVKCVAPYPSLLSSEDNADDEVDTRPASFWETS

As for `O=C(c1ccccc1)N1CCNc2ncc(-c3ccc(NS(=O)(=O)CCN4CCCC4)cc3)cc21` [Example 46, 2-Pyrrolidin-1-yl-ethanesulfonic acid[4-(1-benzoyl-1,2,3,4-tetrahydropyrido[2,3-b]pyrazin-7-yl)phenyl]amide], the IC50 in test [1] and in test [2] was 10 to 100 µM each time.

As for `COc1ccc(N2CCN(C(=O)c3cnc4c(c3)N(Cc3cc(Cl)ccc3Cl)CCN4)CC2)cc1` [Example 247, [1-(2,5-Dichlorobenzyl)-1,2,3,4-tetrahydropyrido[2,3-b]pyrazin-7-yl]-[4-(4-methoxyphenyl)piperazin-1-yl]methanone], the IC50 was greater than 100 µM in test [1] and 1 to 10 µM in test [2].

For `O=C(c1ccccc1)N1CCN(C(=O)c2cnc3c(c2)N(Cc2cc(Cl)ccc2Cl)CCN3)CC1` [Example 219, (4-Benzoylpiperazin-1-yl)-[1-(2,5-dichlorobenzyl)-1,2,3,4-tetrahydropyrido[2,3-b]pyrazin-7-yl]methanone], the IC50 lay in the range of 10 to 100 µM in test [1] and 1 to 10 µM in test [2].

On to `CN1CCN(Cc2cc(Cl)ccc2Cl)c2cc(I)cnc21` [Example 187, 1-(2,5-Dichlorobenzyl)-7-iodo-4-methyl-1,2,3,4-tetrahydropyrido[2,3-b]pyrazine], for which the IC50 in test [1] and in test [2] was greater than 100 µM throughout.

As to `O=C(c1cnc2c(c1)N(Cc1cc(Cl)ccc1Cl)CCN2)N1CCN(CCc2ccccn2)CC1` [Example 229, [1-(2,5-Dichlorobenzyl)-1,2,3,4-tetrahydropyrido[2,3-b]pyrazin-7-yl]-[4-(2-pyridin-2-yl-ethyl)piperazin-1-yl]methanone], the 50% inhibitory concentration (IC50) in test [1] and in test [2] was 1 to 10 µM each time.

`c1ccc(CN2CCNc3ncccc32)cc1` [Example 32, 1-Benzyl-1,2,3,4-tetrahydropyrido[2,3-b]pyrazine]: the half-inhibitory concentration (IC50) in test [1] and in test [2] was greater than 100 µM throughout.

Regarding `O=C(c1ccc(-c2cnc3c(c2)N(C(=O)Cc2ccccc2)CCN3)cc1)N1CCC(N2CCCC2)CC1` [Example 111, 2-Phenyl-1-{7-[4-(4-(pyrrolidin-1-yl)piperidine-1-carbonyl)phenyl]-3,4-dihydro-2H-pyrido[2,3-b]pyrazin-1-yl}-ethanone], the concentration for half-maximal inhibition (IC50) in test [1] was 10 to 100 µM; in test [2], greater than 100 µM.

Turning to `O=C(c1cnc2c(c1)N(Cc1cc(Cl)ccc1Cl)CCN2)N1CCN(c2cccc(C(F)(F)F)c2)CC1` [Example 211, [1-(2,5-Dichlorobenzyl)-1,2,3,4-tetrahydropyrido[2,3-b]pyrazin-7-yl]-{4-[3-(trifluoromethyl)phenyl]piperazin-1-yl}methanone], the IC50 in test [1] and in test [2] was 10 to 100 µM each time.

In the case of `O=C(c1cnc2c(c1)N(Cc1cc(Cl)ccc1Cl)CCN2)N1CCN(c2ccccc2Cl)CC1` [Example 261, [4-(2-Chlorophenyl)piperazin-1-yl]-[1-(2,5-dichlorobenzyl)-1,2,3,4-tetrahydropyrido[2,3-b]pyrazin-7-yl]methanone], the IC50 in test [1] was greater than 100 µM; in test [2], 1 to 10 µM.

With `O=C(NCc1ccccc1Cl)c1cnc2c(c1)N(Cc1cc(Cl)ccc1Cl)CCN2` [Example 256, 1-(2,5-Dichlorobenzyl)-1,2,3,4-tetrahydropyrido[2,3-b]pyrazine-7-carboxylic acid 2-chloro-benzylamide], the IC50 was greater than 100 µM in test [1] and 1 to 10 µM in test [2].

Consider `NCC#Cc1cnc2c(c1)N(Cc1c(Cl)cccc1Cl)CCN2` [Example 171, 3-[1-(2,6-Dichlorobenzyl)-1,2,3,4-tetrahydropyrido[2,3-b]pyrazin-7-yl]prop-2-ynylamine, trifluoroacetic acid salt], for which the IC50 is greater than 100 µM in test [1] and 10 to 100 µM in test [2].

Consider `O=C(NCC(c1ccccc1)c1ccccc1)c1cnc2c(c1)N(Cc1cc(Cl)ccc1Cl)CCN2` [Example 226, 1-(2,5-Dichlorobenzyl)-1,2,3,4-tetrahydropyrido[2,3-b]pyrazine-7-carboxylic acid (2,2-diphenylethyl)amide], for which the IC50 in test [1] and in test [2] was 10 to 100 µM in each case.

As to `CN1CCN(c2ccc(-c3cnc4c(c3)C(Cc3cc(F)ccc3F)CCN4)cn2)CC1` (stereo not shown) [Example 286, 4-(2,5-Difluorobenzyl)-6-[6-(4-methylpiperazin-1-yl)pyridin-3-yl]-1,2,3,4-tetrahydro-[1,8]naphthyridine], the IC50 was greater than 100 µM in test [1] and 1 to 10 µM in test [2].

On to `O=C(c1cnc2c(c1)N(Cc1cc(Cl)ccc1Cl)CCN2)N1CCN(c2ccccc2)CC1` [Example 206, [1-(2,5-Dichlorobenzyl)-1,2,3,4-tetrahydropyrido[2,3-b]pyrazin-7-yl]-(4-phenylpiperazin-1-yl)-methanone], for which the IC50 was greater than 100 µM in test [1] and 10 to 100 µM in test [2].

As for `O=C(c1ccc(-c2cnc3c(c2)N(Cc2cc(F)ccc2F)CCN3)cc1)N1CCOCC1` [Example 68, {4-[1-(2,5-Difluorobenzyl)-1,2,3,4-tetrahydropyrido[2,3-b]pyrazin-7-yl]phenyl}-morpholin-4-yl-methanone], the IC50 in test [1] lay in the range of 1 to 10 µM; in test [2], 0.1 to 1 µM.

As for `CN1CCN(CCNC(=O)c2cnc3c(c2)N(Cc2cc(F)ccc2F)CCN3)CC1` [Example 80, 1-(2,5-Difluorobenzyl)-1,2,3,4-tetrahydropyrido[2,3-b]pyrazine-7-carboxylic acid[2(4-methylpiperazin-1-yl)ethyl]amide], the IC50 was greater than 100 µM in test [1] and 10 to 100 µM in test [2].

On to `O=C(O)c1ccc(-c2cnc3c(c2)N(Cc2cccnc2Cl)CCN3)cc1` [Example 302, 4-[1-(2-Chloropyridin-3-ylmethyl)-1,2,3,4-tetrahydropyrido[2,3-b]pyrazin-7-yl]benzoic acid], for which the IC50 in test [1] and in test [2] was greater than 100 µM in each case.

On to `CCNC(=O)c1cccc(-c2cnc3c(c2)N(Cc2ccccc2)C(=O)CN3)c1` [Example 22, 3-(1-Benzyl-2-oxo-1,2,3,4-tetrahydropyrido[2,3-b]pyrazin-7-yl)-N-ethyl-benzamide], for which the IC50 in test [1] and in test [2] was greater than 100 µM throughout.

For `CN1CCN(C(=O)c2cnc3c(c2)N(Cc2cc(F)ccc2F)CCN3)CC1` [Example 79, [1-(2,5-Difluorobenzyl)-1,2,3,4-tetrahydropyrido[2,3-b]pyrazin-7-yl]-(4-methylpiperazin-1-yl)methanone], the IC50 was greater than 100 µM in test [1] and 10 to 100 µM in test [2].

Take `O=C(NCc1cccc2ccccc12)c1cnc2c(c1)N(Cc1cc(Cl)ccc1Cl)CCN2` [Example 244, 1-(2,5-Dichlorobenzyl)-1,2,3,4-tetrahydropyrido[2,3-b]pyrazine-7-carboxylic acid (naphthalen-1-yl-methyl)amide]: the IC50 in test [1] was greater than 100 µM; in test [2] it was 1 to 10 µM.

For `O=C(O)c1cccc(-c2cnc3c(c2)N(Cc2ccccc2)C(=O)CN3)c1` [Example 31, 3-(1-Benzyl-2-oxo-1,2,3,4-tetrahydropyrido[2,3-b]pyrazin-7-yl)benzoic acid], the IC50 was 10 to 100 µM in test [1] and greater than 100 µM in test [2].

For the compound `Fc1cccc(CN2CCNc3ncc(I)cc32)c1C(F)(F)F` [Example 179, 1-[3-Fluoro-2-(trifluoromethyl)benzyl]-7-iodo-1,2,3,4-tetrahydropyrido[2,3-b]pyrazine], the IC50 in test [1] and in test [2] was greater than 100 µM in each case.

Regarding `CC(C)(C)OC(=O)NCC#Cc1cnc2c(c1)N(Cc1c(Cl)cccc1Cl)CCN2` [Example 170, {3-[1-(2,6-Dichlorobenzyl)-1,2,3,4-tetrahydropyrido[2,3-b]pyrazin-7-yl]prop-2-ynyl}carbamic acid tert-butyl ester], the IC50 was greater than 100 µM in test [1] and 1 to 10 µM in test [2].

As for `O=C(c1cccc(-c2cnc3c(c2)N(Cc2ccccc2)C(=O)CN3)c1)N1CCCC1` [Example 20, 1-Benzyl-7-[3-(pyrrolidine-1-carbonyl)phenyl]-3,4-dihydro-1H-pyrido[2,3-b]pyrazin-2-one], the IC50 in test [1] lay in the range of 10 to 100 µM; in test [2], 1 to 10 µM.

For `Fc1ccc(F)c(CN2CCNc3ncc(-c4ccnc(N5CCOCC5)c4Cl)cc32)c1Cl` [Example 101, 1-(2-Chloro-3,6-difluorobenzyl)-7-(3-chloro-2-morpholin-4-yl-pyridin-4-yl)-1,2,3,4-tetrahydropyrido[2,3-b]pyrazine], the concentration for half-maximal inhibition (IC50) lay in the range of 1 to 10 µM in test [1] and 0.1 to 1 µM in test [2].

Take `O=C(c1cnc2c(c1)N(Cc1cc(Cl)ccc1Cl)CCN2)N1CCN(c2ncccn2)CC1` [Example 207, [1-(2,5-Dichlorobenzyl)-1,2,3,4-tetrahydropyrido[2,3-b]pyrazin-7-yl]-(4-pyrimidin-2-yl-piperazin-1-yl)-methanone]: the IC50 was greater than 100 µM in test [1] and 1 to 10 µM in test [2].

On to `CC(c1cc(F)c(F)cc1F)N1CCNc2ncc(I)cc21` (stereo not shown) [Example 147, 7-Iodo-1-[1-(2,4,5-trifluorophenyl)ethyl]-1,2,3,4-tetrahydropyrido[2,3-b]pyrazine], for which the IC50 in test [1] is greater than 100 µM; in test [2] it was 10 to 100 µM.

As for `O=C(c1cnc2c(c1)N(Cc1cc(Cl)ccc1Cl)CCN2)N1CCOCC1` [Example 243, [1-(2,5-Dichlorobenzyl)-1,2,3,4-tetrahydropyrido[2,3-b]pyrazin-7-yl]morpholin-4-yl-methanone], the IC50 in test [1] and in test [2] was 10 to 100 µM throughout.

As for `O=C(NCc1ccccc1)c1cnc2c(c1)N(Cc1cc(Cl)ccc1Cl)CCN2` [Example 246, 1-(2,5-Dichlorobenzyl)-1,2,3,4-tetrahydropyrido[2,3-b]pyrazine-7-carboxylic acid benzylamide], the IC50 is greater than 100 µM in test [1] and 0.1 to 1 µM in test [2].
